Measured values from patent US11053204B2, “Pyrimidinyloxy benzene derivatives as herbicides” (FMC Corporation, priority 2015, dated 2021).

Key:
Format in all cases: in vivo
[1] = test system: nightshade (eastern black nightshade, Solanum ptycanthum); assay: Test C postemergence, plant response rating; details: for Nightshade plant response rating: scale 0 to 100 (0 no effect, 100 complete control)
Procedure, shortened: (§1)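 Preemergence: seeds sown in loam–sand blend or silt loam and sprayed with test chemicals in a non-phytotoxic surfactant-containing solvent. Postemergence: potted plants at 2–18 cm (1–4-leaf stage) sprayed with the same formulation. After 13–15 d in greenhouse, visual rating versus controls on 0 (no effect) to 100 (complete control) scale.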

[2] = test system: field poppy (Papaver rhoeas); assay: Test C postemergence, plant response rating; details: for Field Poppy plant response rating: scale 0 to 100 (0 no effect, 100 complete control)
Procedure, shortened: as §1

[3] = test system: Canada thistle (Cirsium arvense); assay: Test C postemergence, plant response rating; details: for Canada Thistle plant response rating: scale 0 to 100 (0 no effect, 100 complete control)
Procedure, shortened: as §1

[4] = test system: wild mustard (Sinapis arvensis); assay: Test C postemergence, plant response rating; details: for Mustard, Wild plant response rating: scale 0 to 100 (0 no effect, 100 complete control)
Procedure, shortened: as §1

[5] = test system: johnsongrass (Sorghum halepense); assay: Test C postemergence, plant response rating; details: for Johnsongrass plant response rating: scale 0 to 100 (0 no effect, 100 complete control)
Procedure, shortened: as §1

[6] = test system: pigweed, palmer (palmer pigweed, Amaranthus palmeri); assay: Test C postemergence, plant response rating; details: for Pigweed, Palmer plant response rating: scale 0 to 100 (0 no effect, 100 complete control)
Procedure, shortened: as §1

[7] = test system: buckwheat, wild (wild buckwheat, Polygonum convolvulus); assay: Test C postemergence, plant response rating; details: for Buckwheat, Wild plant response rating: scale 0 to 100 (0 no effect, 100 complete control)
Procedure, shortened: as §1

[8] = test system: speedwell (bird's-eye speedwell, Veronica persica); assay: Test C postemergence, plant response rating; details: for Speedwell plant response rating: scale 0 to 100 (0 no effect, 100 complete control)
Procedure, shortened: as §1

[9] = test system: geranium, cutleaf (cutleaf geranium, Geranium dissectum); assay: Test C postemergence, plant response rating; details: for Geranium, Cutleaf plant response rating: scale 0 to 100 (0 no effect, 100 complete control)
Procedure, shortened: as §1

[10] = test system: field violet (Viola arvensis); assay: Test C postemergence, plant response rating; details: for Field Violet plant response rating: scale 0 to 100 (0 no effect, 100 complete control)
Procedure, shortened: as §1

[11] = test system: windgrass (Apera spica-venti); assay: Test C postemergence, plant response rating
Procedure, shortened: as §1

[12] = test system: surinam grass (Brachiaria decumbens); assay: Test C postemergence, plant response rating
Procedure, shortened: as §1

[13] = test system: wild poinsettia (Euphorbia heterophylla); assay: Test C postemergence, plant response rating; details: for Poinsettia, Wild plant response rating: scale 0 to 100 (0 no effect, 100 complete control)
Procedure, shortened: as §1

[14] = test system: wild poinsettia (Euphorbia heterophylla); assay: Test C preemergence, plant response rating
[15] = test system: pigweed, palmer (palmer pigweed, Amaranthus palmeri); assay: Test C preemergence, plant response rating
[16] = test system: kochia (Kochia scoparia); assay: Test C preemergence, plant response rating
[17] = test system: galium (catchweed bedstraw, Galium aparine); assay: Test C preemergence, plant response rating
[18] = test system: johnsongrass (Sorghum halepense); assay: Test C preemergence, plant response rating
[19] = test system: oat, wild (wild oat Avena fatua); assay: Test C preemergence, plant response rating
[20] = test system: surinam grass (Brachiaria decumbens); assay: Test C preemergence, plant response rating
[21] = 125 g ai/ha, scale 0 to 100 (0 no effect, 100 complete control)

SMILES: N#Cc1cccc(Oc2ncc(Cl)cn2)c1COCCC(F)(F)F [Compound 80]
- Plant response rating, Nightshade ([1]; 16 g ai/ha, scale of 0 to 100): 60
- Plant response rating, Nightshade ([1]; 31 g ai/ha, scale 0 to 100): 65
- Nightshade plant response rating ([1]; 62 g ai/ha): 70
- Nightshade plant response rating ([1]; 125 g ai/ha): 75
- Plant response rating, Field Poppy ([2]; 16 g ai/ha, scale of 0 to 100): 70
- Plant response rating, Field Poppy ([2]; 31 g ai/ha, scale 0 to 100): 75
- Field Poppy plant response rating ([2]; 62 g ai/ha): 85
- Field Poppy plant response rating ([2]; 125 g ai/ha): 85
- Plant response rating, Canada Thistle ([3]; 16 g ai/ha, scale of 0 to 100): 75
- Plant response rating, Canada Thistle ([3]; 31 g ai/ha, scale 0 to 100): 75
- Canada Thistle plant response rating ([3]; 62 g ai/ha): 75
- Canada Thistle plant response rating ([3]; 125 g ai/ha): 85
- Plant response rating, Mustard, Wild ([4]; 16 g ai/ha, scale of 0 to 100): 75
- Plant response rating, Mustard, Wild ([4]; 31 g ai/ha, scale 0 to 100): 80
- Mustard, Wild plant response rating ([4]; 62 g ai/ha): 80
- Mustard, Wild plant response rating ([4]; 125 g ai/ha): 90
- Plant response rating, Johnsongrass ([5]; 16 g ai/ha, scale of 0 to 100): 5
- Plant response rating, Johnsongrass ([5]; 31 g ai/ha, scale 0 to 100): 5
- Johnsongrass plant response rating ([5]; 62 g ai/ha): 5
- Johnsongrass plant response rating ([5]; 125 g ai/ha): 5
- Plant response rating, Pigweed, Palmer ([6]; 16 g ai/ha, scale of 0 to 100): 30
- Plant response rating, Pigweed, Palmer ([6]; 31 g ai/ha, scale 0 to 100): 35
- Pigweed, Palmer plant response rating ([6]; 62 g ai/ha): 70
- Pigweed, Palmer plant response rating ([6]; 125 g ai/ha): 60
- Plant response rating, Buckwheat, Wild ([7]; 16 g ai/ha, scale of 0 to 100): 70
- Plant response rating, Buckwheat, Wild ([7]; 31 g ai/ha, scale 0 to 100): 70
- Buckwheat, Wild plant response rating ([7]; 62 g ai/ha): 75
- Buckwheat, Wild plant response rating ([7]; 125 g ai/ha): 95
- Plant response rating, Speedwell ([8]; 16 g ai/ha, scale of 0 to 100): 90
- Plant response rating, Speedwell ([8]; 31 g ai/ha, scale 0 to 100): 100
- Speedwell plant response rating ([8]; 62 g ai/ha): 100
- Speedwell plant response rating ([8]; 125 g ai/ha): 100
- Plant response rating, Geranium, Cutleaf ([9]; 16 g ai/ha, scale of 0 to 100): 30
- Plant response rating, Geranium, Cutleaf ([9]; 31 g ai/ha, scale 0 to 100): 35
- Geranium, Cutleaf plant response rating ([9]; 62 g ai/ha): 35
- Geranium, Cutleaf plant response rating ([9]; 125 g ai/ha): 60
- Plant response rating, Field Violet ([10]; 16 g ai/ha, scale of 0 to 100): 75
- Plant response rating, Field Violet ([10]; 31 g ai/ha, scale 0 to 100): 85
- Field Violet plant response rating ([10]; 62 g ai/ha): 90
- Field Violet plant response rating ([10]; 125 g ai/ha): 95
- Plant response rating, Windgrass ([11]; 16 g ai/ha, scale of 0 to 100): 0
- Plant response rating, Windgrass ([11]; 31 g ai/ha, scale 0 to 100): 5
- Windgrass plant response rating [11, 21]: 30
- Plant response rating, Surinam Grass ([12]; 16 g ai/ha, scale of 0 to 100): 10
- Plant response rating, Surinam Grass ([12]; 31 g ai/ha, scale 0 to 100): 10
- Surinam Grass plant response rating [12, 21]: 25
- Plant response rating, Poinsettia, Wild ([13]; 16 g ai/ha, scale of 0 to 100): 65
- Plant response rating, Poinsettia, Wild ([13]; 31 g ai/ha, scale 0 to 100): 65
- Poinsettia, Wild plant response rating ([13]; 62 g ai/ha): 70
- Poinsettia, Wild plant response rating ([13]; 125 g ai/ha): 75
- Plant response rating, Poinsettia, Wild ([14]; 31 g ai/ha, scale 0 to 100): 30
- Plant response rating, Poinsettia, Wild ([14]; 62 g ai/ha, scale 0 to 100): 40
- Plant response rating, Poinsettia, Wild ([14]; 125 g ai/ha, scale of 0 to 100): 85
- Plant response rating, Pigweed, Palmer ([15]; 31 g ai/ha, scale 0 to 100): 85
- Plant response rating, Pigweed, Palmer ([15]; 62 g ai/ha, scale 0 to 100): 100
- Plant response rating, Pigweed, Palmer ([15]; 125 g ai/ha, scale of 0 to 100): 98
- Plant response rating, Kochia ([16]; 31 g ai/ha, scale 0 to 100): 95
- Plant response rating, Kochia ([16]; 62 g ai/ha, scale 0 to 100): 100
- Plant response rating, Kochia ([16]; 125 g ai/ha, scale of 0 to 100): 100
- Plant response rating, Galium ([17]; 31 g ai/ha, scale 0 to 100): 5
- Plant response rating, Galium ([17]; 62 g ai/ha, scale of 0 to 100): 75
- Plant response rating, Galium ([17]; 125 g ai/ha, scale of 0 to 100): 98
- Plant response rating, Johnsongrass ([18]; 31 g ai/ha, scale 0 to 100): 30
- Plant response rating, Johnsongrass ([18]; 62 g ai/ha, scale 0 to 100): 55
- Plant response rating, Johnsongrass ([18]; 125 g ai/ha, scale of 0 to 100): 60
- Plant response rating, Oat, Wild ([19]; 31 g ai/ha, scale 0 to 100): 0
- Plant response rating, Oat, Wild ([19]; 62 g ai/ha, scale 0 to 100): 10
- Plant response rating, Oat, Wild ([19]; 125 g ai/ha, scale of 0 to 100): 30
- Plant response rating, Surinam Grass ([20]; 31 g ai/ha, scale 0 to 100): 50
- Plant response rating, Surinam Grass ([20]; 62 g ai/ha, scale 0 to 100): 60
- Plant response rating, Surinam Grass ([20]; 125 g ai/ha, scale of 0 to 100): 98
